In patent EP4725957A1, “GROUP OF CYCLIC ALKALINE LIPOPEPTIDE COMPOUNDS, AND PREPARATION METHOD THEREFOR AND USE THEREOF” (Institute of Medicinal Biotechnology, Chinese Academy of …, priority 2023, dated 2024):
Converted amounts (≈) assume the structure as drawn. Where two headings read alike, the source gives them in different places. Bridge positions count the residues as written; N and C are the ends. Square brackets hold non-standard residues; d marks the D form. Peptide text beside a SMILES is read from it. * marks the point of attachment. Heptanoyl(6-Me) = CC(C)CCCCC(=O)*; Sulfomethyl = O=S(=O)(O)C*; Nonanoyl = CCCCCCCCC(=O)*; X1 = CC[C@H](C)CCCCC(=O)*; dDab = NCC[C@@H](N)C(=O)O; Heptanoyl = CCCCCCC(=O)*; Octanoyl = CCCCCCCC(=O)*; dDap = NC[C@@H](N)C(=O)O; Dab = NCC[C@H](N)C(=O)O; Dap = NC[C@H](N)C(=O)O

Experiments:
Type in all cases: cell-based
[1] = test system: Klebsiella pneumoniae ATCC BAA-1705 (KPC)
Outline: (§1)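 Colonies from 18-24 h plates were suspended to 0.5 McFarland and diluted in MH broth. Two-fold compound dilutions were then mixed 1:1 with inoculum to reach 64 to 0.03 mg/L and (2-4) × 10^5 CFU/mL. Plates were sealed and incubated at 35-37°C for 16-20 h, after which the MIC was read.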

[2] = test system: Klebsiella pneumoniae KPN+19-15
Outline: as §1

[3] = test system: Acinetobacter baumannii NCTC 13304 (OXA-27)
Outline: as §1

[4] = test system: Acinetobacter baumannii ABA19-1
Outline: as §1

[5] = test system: Escherichia coli ATCC BAA-2523
Outline: as §1

[6] = test system: Pseudomonas aeruginosa ATCC 27853
Outline: as §1

[7] = test system: Pseudomonas aeruginosa PAE19-3
Outline: as §1

[8] = test system: Escherichia coli ATCC BAA-2340 (KPC)
Outline: as §1

[9] = Nephrotoxicity assay: in vitro cytotoxicity of HK-2 cells by CCK-8 assay; settings: human, HK-2 cells (human renal), 72 h incubation with drug-containing medium
Outline: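 HK-2 human renal cells in RPMI-1640 with 10% FBS were exposed to compounds at final 12.5–500 µg/mL for 72 h, then CCK-8 for 3 h and OD450 read. Viability was normalised to drug-free wells; IC50 came from logarithmic regression over three repeats, with polymyxin B as positive drug.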

| Structure (SMILES) | MIC ([1]; ATCC BAA-1705) [µg/mL] | MIC ([2]; KPN+19-15) [µg/mL] | MIC ([3]; NCTC 13304) [µg/mL] | MIC ([4]; ABA19-1) [µg/mL] | MIC ([5]; ATCC BAA-2523) [µg/mL] | MIC ([6]; ATCC 27853) [µg/mL] | MIC ([7]; PAE19-3) [µg/mL] | MIC ([8]; ATCC BAA-2340) [µg/mL] | IC50 at 72 h [9] [µg/mL] | MIC ([1]; Klebsiella pneumoniae ATCC BAA-1705 (KPC)) [µg/mL] | MIC ([2]; Klebsiella pneumoniae KPN 19-15) [µg/mL] | MIC ([3]; Acinetobacter baumannii NCTC 13304 (OXA-27)) [µg/mL] | MIC ([4]; Acinetobacter baumannii ABA19-1) [µg/mL] | MIC ([5]; Escherichia coli ATCC BAA-2523) [µg/mL] | MIC ([6]; Pseudomonas aeruginosa ATCC27853) [µg/mL] | MIC ([7]; Pseudomonas aeruginosa PAE19-3) [µg/mL] | MIC ([8]; Escherichia coli ATCC BAA-2340 (KPC)) [µg/mL] |
| --- | --- | --- | --- | --- | --- | --- | --- | --- | --- | --- | --- | --- | --- | --- | --- | --- | --- |
| CC(C)CCCCC(=O)N[C@@H](CCN)C(=O)N[C@H](C(=O)N[C@@H](CN)C(=O)N[C@H]1CCNC(=O)[C@H]([C@@H](C)O)NC(=O)[C@H](CCN)NC(=O)[C@H](CCN)NC(=O)[C@H](CC(C)C)NC(=O)[C@@H](Cc2ccccc2)NC(=O)[C@H](CCN)NC1=O)[C@@H](C)O [Compound 37, 6-methylheptanoyl-Dab-Thr-Dap-ring(4-10)[Dab-Dab-D-Phe-Leu-Dab-Dab-Thr]] ({Heptanoyl(6-Me)}-[Dab]T[Dap][Dab][Dab][dF]L[Dab][Dab]T; lactam 4-C) | 0.03 (≈ 0.0255 µM) | 0.03 (≈ 0.0255 µM) | 0.03 (≈ 0.0255 µM) | 0.03 (≈ 0.0255 µM) | 0.03 (≈ 0.0255 µM) | 0.03 (≈ 0.0255 µM) | 0.25 (≈ 0.213 µM) | 0.03 (≈ 0.0255 µM) | 318 ± 10.2 (≈ 270 µM) |  |  |  |  |  |  |  |  |
| CCCCCCCC(=O)N[C@@H](CCN)C(=O)N[C@H](C(=O)N[C@@H](CCN)C(=O)N[C@H]1CCNC(=O)[C@H]([C@@H](C)O)NC(=O)[C@H](CCN)NC(=O)[C@H](CCN)NC(=O)[C@H]([C@@H](C)O)NC(=O)[C@@H](Cc2ccccc2)NC(=O)[C@H](CCN)NC1=O)[C@@H](C)O [Compound 18, Octanoyl-Dab-Thr-Dab-ring(4-10)[Dab-Dab-D-Phe-Thr-Dab-Dab-Thr]] (Octanoyl-[Dab]T[Dab][Dab][Dab][dF]T[Dab][Dab]T; lactam 4-C) | 0.5 (≈ 0.425 µM) | ≤0.03 | 0.25 (≈ 0.212 µM) | 0.5 (≈ 0.425 µM) | ≤0.03 | 0.5 (≈ 0.425 µM) | 0.5 (≈ 0.425 µM) | 0.06 (≈ 0.051 µM) | > 500 |  |  |  |  |  |  |  |  |
| CCCCCCCCC(=O)N[C@@H](CN)C(=O)N[C@H](C(=O)N[C@H](CCN)C(=O)N[C@H]1CCNC(=O)[C@H]([C@@H](C)O)NC(=O)[C@H](CCN)NC(=O)[C@H](CCN)NC(=O)[C@H](CC(C)C)NC(=O)[C@@H](CC(C)C)NC(=O)[C@H](CCN)NC1=O)[C@@H](C)O [Compound 100, Nonanoyl-Dap-Thr-D-Dab-ring(4-10)[Dab-Dab-D-Leu-Leu-Dab-Dab-Thr]] (Nonanoyl-[Dap]T[dDab][Dab][Dab][dL]L[Dab][Dab]T; lactam 4-C) | 0.06 (≈ 0.0519 µM) | 0.06 (≈ 0.0519 µM) | 0.06 (≈ 0.0519 µM) | 0.06 (≈ 0.0519 µM) | 0.125 (≈ 0.108 µM) | 1 (≈ 0.865 µM) | 1 (≈ 0.865 µM) | 0.125 (≈ 0.108 µM) | 117 ± 15.6 (≈ 101 µM) |  |  |  |  |  |  |  |  |
| CCCCCCCC(=O)N[C@@H](CCN)C(=O)N[C@H](C(=O)N[C@@H](CN)C(=O)N[C@H]1CCNC(=O)[C@H]([C@@H](C)O)NC(=O)[C@H](CCN)NC(=O)[C@H](CCN)NC(=O)[C@H](CC(C)C)NC(=O)[C@@H](Cc2ccccc2)NC(=O)[C@H](CCN)NC1=O)[C@@H](C)O [Compound 38, Octanoyl-Dab-Thr-Dap-ring(4-10)[Dab-Dab-D-Phe-Leu-Dab-Dab-Thr]] (Octanoyl-[Dab]T[Dap][Dab][Dab][dF]L[Dab][Dab]T; lactam 4-C) |  |  |  |  |  |  |  |  | 219 ± 9.4 (≈ 186 µM) | 0.03 (≈ 0.0255 µM) | 0.03 (≈ 0.0255 µM) | 0.03 (≈ 0.0255 µM) | 0.03 (≈ 0.0255 µM) | 0.03 (≈ 0.0255 µM) | 0.03 (≈ 0.0255 µM) | 0.25 (≈ 0.213 µM) | 0.03 (≈ 0.0255 µM) |
| CC(C)CCCCC(=O)N[C@@H](CCN)C(=O)N[C@H](C(=O)N[C@@H](CN)C(=O)N[C@H]1CCNC(=O)[C@H]([C@@H](C)OCS(=O)(=O)O)NC(=O)[C@H](CCN)NC(=O)[C@H](CCN)NC(=O)[C@H]([C@@H](C)O)NC(=O)[C@@H](Cc2ccccc2)NC(=O)[C@H](CCN)NC1=O)[C@@H](C)O [Compound 115, 6-methylheptanoyl-Dab-Thr-Dap-ring(4-10)[Dab-Dab-D-Phe-Thr-Dab-Dab-Thr(CH2SO3H)]] ({Heptanoyl(6-Me)}-[Dab]T[Dap][Dab][Dab][dF]T[Dab][Dab]T(Sulfomethyl); lactam 4-C) | 0.125 (≈ 0.0994 µM) | 0.125 (≈ 0.0994 µM) | 0.06 (≈ 0.0477 µM) | 0.06 (≈ 0.0477 µM) | 0.03 (≈ 0.0239 µM) | 0.25 (≈ 0.199 µM) | 0.25 (≈ 0.199 µM) | 0.03 (≈ 0.0239 µM) | > 500 |  |  |  |  |  |  |  |  |
| CC(C)CCCCC(=O)N[C@@H](CCN)C(=O)N[C@H](C(=O)N[C@@H](CN)C(=O)N[C@H]1CCNC(=O)[C@H]([C@@H](C)O)NC(=O)[C@H](CCN)NC(=O)[C@H](CCN)NC(=O)[C@H]([C@@H](C)O)NC(=O)[C@@H](Cc2ccccc2)NC(=O)[C@H](CCN)NC1=O)[C@@H](C)OCS(=O)(=O)O [Compound 113, 6-methylheptanoyl-Dab-Thr(CH2SO3H)-Dap-ring(4-10)[Dab-Dab-D-Phe-Thr-Dab-Dab-Thr]] ({Heptanoyl(6-Me)}-[Dab]T(Sulfomethyl)[Dap][Dab][Dab][dF]T[Dab][Dab]T; lactam 4-C) | 0.125 (≈ 0.0994 µM) | 0.125 (≈ 0.0994 µM) | 0.06 (≈ 0.0477 µM) | 0.06 (≈ 0.0477 µM) | 0.03 (≈ 0.0239 µM) | 0.25 (≈ 0.199 µM) | 0.25 (≈ 0.199 µM) | 0.03 (≈ 0.0239 µM) | > 500 |  |  |  |  |  |  |  |  |
| CC(C)CCCCC(=O)N[C@@H](CCN)C(=O)N[C@H](C(=O)N[C@H](CO)C(=O)N[C@H]1CCNC(=O)[C@H]([C@@H](C)O)NC(=O)[C@H](CN)NC(=O)[C@H](CCN)NC(=O)[C@H]([C@@H](C)O)NC(=O)[C@@H](Cc2ccccc2)NC(=O)[C@H](CCN)NC1=O)[C@@H](C)O [Compound 82, 6-methylheptanoyl-Dab-Thr-D-Ser-ring(4-10)[Dab-Dab-D-Phe-Thr-Dab-Dap-Thr]] ({Heptanoyl(6-Me)}-[Dab]T[dS][Dab][Dab][dF]T[Dab][Dap]T; lactam 4-C) | 0.25 (≈ 0.217 µM) | 0.5 (≈ 0.435 µM) | ≤0.03 | 0.06 (≈ 0.0522 µM) | 0.03 (≈ 0.0261 µM) | >64 | 64 (≈ 55.6 µM) | 0.03 (≈ 0.0261 µM) | > 500 |  |  |  |  |  |  |  |  |
| CC[C@H](C)CCCCC(=O)N[C@@H](CCN)C(=O)N[C@H](C(=O)N[C@H](CN)C(=O)N[C@H]1CCNC(=O)[C@H]([C@@H](C)O)NC(=O)[C@H](CCN)NC(=O)[C@H](CCN)NC(=O)[C@H](CC(C)C)NC(=O)[C@@H](Cc2ccccc2)NC(=O)[C@H](CCN)NC1=O)[C@@H](C)O [Compound 31, (S)-6-methyloctanoyl-Dab-Thr-D-Dap-ring(4-10)[Dab-Dab-D-Phe-Leu-Dab-Dab-Thr]] (X1-[Dab]T[dDap][Dab][Dab][dF]L[Dab][Dab]T; lactam 4-C) | 0.03 (≈ 0.0252 µM) | 0.03 (≈ 0.0252 µM) | 0.03 (≈ 0.0252 µM) | 0.03 (≈ 0.0252 µM) | 0.03 (≈ 0.0252 µM) | 0.03 (≈ 0.0252 µM) | 0.25 (≈ 0.21 µM) | 0.03 (≈ 0.0252 µM) | 222 ± 10.2 (≈ 186 µM) |  |  |  |  |  |  |  |  |
| CCCCCCC(=O)N[C@@H](CCN)C(=O)N[C@H](C(=O)N[C@@H](CCN)C(=O)N[C@H]1CCNC(=O)[C@H]([C@@H](C)O)NC(=O)[C@H](CCN)NC(=O)[C@H](CCN)NC(=O)[C@H]([C@@H](C)O)NC(=O)[C@@H](Cc2ccccc2)NC(=O)[C@H](CCN)NC1=O)[C@@H](C)O [Compound 19, Heptanoyl-Dab-Thr-Dab-ring(4-10)[Dab-Dab-D-Phe-Thr-Dab-Dab-Thr]] (Heptanoyl-[Dab]T[Dab][Dab][Dab][dF]T[Dab][Dab]T; lactam 4-C) | 0.06 (≈ 0.0516 µM) | 0.03 (≈ 0.0258 µM) | 0.25 (≈ 0.215 µM) | 0.5 (≈ 0.43 µM) | 0.03 (≈ 0.0258 µM) | 2 (≈ 1.72 µM) | 2 (≈ 1.72 µM) | 0.03 (≈ 0.0258 µM) | > 500 |  |  |  |  |  |  |  |  |
| CCCCCCCC(=O)N[C@@H](CN)C(=O)N[C@H](C(=O)N[C@H](CCN)C(=O)N[C@H]1CCNC(=O)[C@H]([C@@H](C)O)NC(=O)[C@H](CCN)NC(=O)[C@H](CCN)NC(=O)[C@H](CC(C)C)NC(=O)[C@@H](CC(C)C)NC(=O)[C@H](CCN)NC1=O)[C@@H](C)O [Compound 98, Octanoyl-Dap-Thr-D-Dab-ring(4-10)[Dab-Dab-D-Leu-Leu-Dab-Dab-Thr]] (Octanoyl-[Dap]T[dDab][Dab][Dab][dL]L[Dab][Dab]T; lactam 4-C) | 0.03 (≈ 0.0263 µM) | 0.03 (≈ 0.0263 µM) | 0.03 (≈ 0.0263 µM) | 0.03 (≈ 0.0263 µM) | 0.03 (≈ 0.0263 µM) | 0.5 (≈ 0.438 µM) | 0.5 (≈ 0.438 µM) | 0.03 (≈ 0.0263 µM) | 238 ± 9.9 (≈ 209 µM) |  |  |  |  |  |  |  |  |
